Molecular target: 125I-streptavidin (Streptomyces avidinii, UniProt P22629)
Sequence (P22629 25-183): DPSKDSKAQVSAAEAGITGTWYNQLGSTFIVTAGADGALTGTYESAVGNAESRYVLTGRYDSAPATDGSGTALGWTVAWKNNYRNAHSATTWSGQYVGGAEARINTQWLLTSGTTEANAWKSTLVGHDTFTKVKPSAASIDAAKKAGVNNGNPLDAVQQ

## O=C1NCC(C(=O)O)N1 (stereo not shown) [2-imidazolidone-4-carboxylic acid]
  signal in scintillation proximity assay (binding to 125I-streptavidin): lower signal
